What was measured:
[1] = tested on: randomized patients; experiment: Listed Causes of Death from Efficacy Data Set (by randomized treatment); format: in vivo; settings: Ticagrelor 90 mg bd N = 9333; Clopidcgrel 75 mg cd N = 9291
From the text: Causes of death were similar between treatment groups. The most common cause of death was myocardial infarction occurring in about 1% of randomized patients. Sudden death, heart failure, other vascular events and stroke were among the more common causes of death.

[2] = tested on: individuals undergoing coronary stent implantation for therapy of Acute Coronary Syndrome (ASC); experiment: large randomized study, primary end point (death from vascular causes, MI or stroke); format: in vivo

CCCSc1nc(N[C@@H]2C[C@H]2c2ccc(F)c(F)c2)c2nnn([C@@H]3C[C@H](OCCO)[C@@H](O)[C@H]3O)c2n1 [Ticagrelor, (1S,2S,3R,5S)-3-[7-[(1R,2S)-2-(3,4-Difluorophenyl)cyclopropylamino]-5-(propylthio)-3H-[1,2,3]triazolo[4,5-d]pyrimidin-3-yl]-5-(2-hydroxyethoxy)cyclopentane-1,2-diol]
Cause of death: Aortic dissection, number [1]: 1 | Cause of death: Aortic dissection, percent [1]: (0.0%) | Cause of death: Arterial embolism, number [1]: 0 | Cause of death: Arterial embolism, percent [1]: (0.0%) | Cause of death: Cancer, number [1]: 14 | Cause of death: Cancer, percent [1]: (0.2%) | Cause of death: Cardiac arrhythmia, number [1]: 20 | Cause of death: Cardiac arrhythmia, percent [1]: (0.2%) | Cause of death: Death from bleeding (not related to trauma), number [1]: 13 | Cause of death: Death from bleeding (not related to trauma), percent [1]: (0.1%) | Cause of death: Endocarditis, number [1]: 0 | Cause of death: Endocarditis, percent [1]: (0.0%) | Cause of death: Heart failure, number [1]: 51 | Cause of death: Heart failure, percent [1]: (0.5%) | Cause of death: Liver failure, number [1]: 0 | Cause of death: Liver failure, percent [1]: (0.0%) | Cause of death: Multiorgan failure, number [1]: 9 | Cause of death: Multiorgan failure, percent [1]: (0.1%) | Cause of death: Myocardial infarction, number [1]: 89 | Cause of death: Myocardial infarction, percent [1]: (1.0%) | Cause of death: Other coronary artery disease, number [1]: 4 | Cause of death: Other coronary artery disease, percent [1]: (0.0%) | Cause of death: Other non-vascular cause, number [1]: 8 | Cause of death: Other non-vascular cause, percent [1]: (0.1%) | Cause of death: Other vascular cause, number [1]: 44 | Cause of death: Other vascular cause, percent [1]: (0.5%) | Cause of death: Pneumonia, number [1]: 10 | Cause of death: Pneumonia, percent [1]: (0.1%) | Cause of death: Pulmonary embolism, number [1]: 3 | Cause of death: Pulmonary embolism, percent [1]: (0.0%) | Cause of death: Renal failure, number [1]: 2 | Cause of death: Renal failure, percent [1]: (0.0%) | Cause of death: Respiratory failure, number [1]: 13 | Cause of death: Respiratory failure, percent [1]: (0.1%) | Cause of death: Ruptured aortic aneurysm, number [1]: 1 | Cause of death: Ruptured aortic aneurysm, percent [1]: (0.0%) | Cause of death: Sepsis, number [1]: 7 | Cause of death: Sepsis, percent [1]: (0.1%) | Cause of death: Stroke, number [1]: 20 | Cause of death: Stroke, percent [1]: (0.2%) | Cause of death: Sudden death, number [1]: 60 | Cause of death: Sudden death, percent [1]: (0.6%) | Cause of death: Suicida, number [1]: 1 | Cause of death: Suicida, percent [1]: (0.0%) | Cause of death: Trauma, number [1]: 3 | Cause of death: Trauma, percent [1]: (0.0%) | Cause of death: Unknown, number [1]: 39 | Cause of death: Unknown, percent [1]: (0.4%) | Cause of death: Unstable angina, number [1]: 7 | Cause of death: Unstable angina, percent [1]: (0.1%) | Cause of death: Valvular disease, number [1]: 0 | Cause of death: Valvular disease, percent [1]: (0.0%) | Cause of death: Vascular death, sub-classification missing, number [1]: 0 | Cause of death: Vascular death, sub-classification missing, percent [1]: (0.0%)

COC(=O)[C@H](c1ccccc1Cl)N1CCc2sccc2C1 [clopidogrel]
primary end point: first event of death from vascular causes, myocardial infarction (MI) or stroke, occurred in % of patients [2]: 11.7% | Cause of death: Aortic dissection, number [1]: 2 | Cause of death: Aortic dissection, percent [1]: (0.0%) | Cause of death: Arterial embolism, number [1]: 2 | Cause of death: Arterial embolism, percent [1]: (0.0%) | Cause of death: Cancer, number [1]: 17 | Cause of death: Cancer, percent [1]: (0.2%) | Cause of death: Cardiac arrhythmia, number [1]: 29 | Cause of death: Cardiac arrhythmia, percent [1]: (0.3%) | Cause of death: Death from bleeding (not related to trauma), number [1]: 15 | Cause of death: Death from bleeding (not related to trauma), percent [1]: (0.2%) | Cause of death: Endocarditis, number [1]: 0 | Cause of death: Endocarditis, percent [1]: (0.0%) | Cause of death: Heart failure, number [1]: 62 | Cause of death: Heart failure, percent [1]: (0.7%) | Cause of death: Liver failure, number [1]: 1 | Cause of death: Liver failure, percent [1]: (0.0%) | Cause of death: Multiorgan failure, number [1]: 14 | Cause of death: Multiorgan failure, percent [1]: (0.2%) | Cause of death: Myocardial infarction, number [1]: 89 | Cause of death: Myocardial infarction, percent [1]: (0.9%) | Cause of death: Other coronary artery disease, number [1]: 4 | Cause of death: Other coronary artery disease, percent [1]: (0.0%) | Cause of death: Other non-vascular cause, number [1]: 11 | Cause of death: Other non-vascular cause, percent [1]: (0.1%) | Cause of death: Other vascular cause, number [1]: 55 | Cause of death: Other vascular cause, percent [1]: (0.6%) | Cause of death: Pneumonia, number [1]: 8 | Cause of death: Pneumonia, percent [1]: (0.1%) | Cause of death: Pulmonary embolism, number [1]: 8 | Cause of death: Pulmonary embolism, percent [1]: (0.1%) | Cause of death: Renal failure, number [1]: 5 | Cause of death: Renal failure, percent [1]: (0.1%) | Cause of death: Respiratory failure, number [1]: 12 | Cause of death: Respiratory failure, percent [1]: (0.1%) | Cause of death: Ruptured aortic aneurysm, number [1]: 0 | Cause of death: Ruptured aortic aneurysm, percent [1]: (0.0%) | Cause of death: Sepsis, number [1]: 23 | Cause of death: Sepsis, percent [1]: (0.2%) | Cause of death: Stroke, number [1]: 18 | Cause of death: Stroke, percent [1]: (0.2%) | Cause of death: Sudden death, number [1]: 77 | Cause of death: Sudden death, percent [1]: (0.8%) | Cause of death: Suicida, number [1]: 1 | Cause of death: Suicida, percent [1]: (0.0%) | Cause of death: Trauma, number [1]: 1 | Cause of death: Trauma, percent [1]: (0.0%) | Cause of death: Unknown, number [1]: 58 | Cause of death: Unknown, percent [1]: (0.6%) | Cause of death: Unstable angina, number [1]: 8 | Cause of death: Unstable angina, percent [1]: (0.1%) | Cause of death: Valvular disease, number [1]: 1 | Cause of death: Valvular disease, percent [1]: (0.0%) | Cause of death: Vascular death, sub-classification missing, number [1]: 1 | Cause of death: Vascular death, sub-classification missing, percent [1]: (0.0%)
